Reference: publication PMC5295395, “Inhibition of PlexA1-mediated brain tumor growth and tumor-associated angiogenesis using a transmembrane domain targeting peptide” (Oncotarget, 2016)
“Also recorded” adds a separate entry of the source.

B1: Sema3A: PlexA1 ligand (protein, UniProt Q14563 21-771, looked up)
Semaphorin-3A: NYQNGKNNVPRLKLSYKEMLESNNVITFNGLANSSSYHTFLLDEERSRLYVGAKDHIFSFDLVNIKDFQKIVWPVSYTRRDECKWAGKDILKECANFIKVLKAYNQTHLYACGTGAFHPICTYIEIGHHPEDNIFKLENSHFENGRGKSPYDPKLLTASLLIDGELYSGTAADFMGRDFAIFRTLGHHHPIRTEQHDSRWLNDPKFISAHLISESDNPEDDKVYFFFRENAIDGEHSGKATHARIGQICKNDFGGHRSLVNKWTTFLKARLICSVPGPNGIDTHFDELQDVFLMNFKDPKNPVVYGVFTTSSNIFKGSAVCMYSMSDVRRVFLGPYAHRDGPNYQWVPYQGRVPYPRPGTCPSKTFGGFDSTKDLPDDVITFARSHPAMYNPVFPMNNRPIVIKTDVNYQFTQIVVDRVDAEDGQYDVMFIGTDVGTVLKVVSIPKETWYDLEEVLLEEMTVFREPTAISAMELSTKQQQLYIGSTAGVAQLPLHRCDIYGKACAECCLARDPYCAWDGSACSRYFPTAKRRTRRQDIRNGDPLTHCSDLHHDNHHGHSPEERIIYGVENSSTFLECSPKSQRALVYWQFQRRNEERKEEIRVDDHIIRTDQGLLLRSLQQKDSGNYLCHAVEHGFIQTLLKVTLEVIDTEHLEELLHKDDDGDGSKTKEMSNSMTPSQKVWYRDFMQLINHPNLNTMDEFCEQVWKRDRKQRRQRPGHTPGNSNKWKHLQENKKGRNRRTHEFERAPRSV

Tests used:
PlexA1 TMD = assay: bacterial two-hybrid (BACTH) assay of TMD interactions with PlexA1 TMD; type: binding; conditions: Zip sequence positive control, Empty negative control
From the text: To further explore the TMD interactions of PlexA1 we used a bacterial two-hybrid system for a more systematic analysis of TMD interactions. TMD sequences of PlexA1 and various potential interacting partners including NRP1 and all other members of the Plexin-A family were co-expressed in the bacteria to define the hierarchy of the interactions.
(§1) “Zip sequence” is the positive control of dimerization and “Empty” is the negative control of this bacterial system. (C, D) SPR assay (Biacore) to quantify MTP-PlexA1 interactions with PLexA1, NRP1 and VEGFR2 TMDs. (E) Proximity ligation assay showing that MTP-PlexA1 (10^−7 M) decreases the number of PLexA1-NRP1 interactions (green dots) in U373MG cells (scale bar = 20 μm).

U373MG cells = assay: 3D migration assay, U373MG spheroids in plasma clot; type: cell-based, human; conditions: U373MG, 100 ng/ml, 24 h plasma clot
Experimental: Supplementary Figure S6: The anti-tumor effect of MTP-PlxA1 was verified in U373MG human GBM line. We found […]
Because PlexA1 is involved in cell migration we also performed a 3D migration assay. U373MG cells were grown as cell aggregates (micro tumor-like spheroids) for 24 h in plasma clot with or without VEGF. […]
migration that formed cell chains invading the 3D substrate as previously described (12). Strikingly, VEGF-induced cell migration was abolished when MTP-PlexA1 at 10–7 M was added to the cultures. […]
of PlexA1, this part of the study exemplified the therapeutic potential of MTP-PlexA1 because this peptide was able to block two major mechanisms of tumor progression.
(Stable Disease) and 62.5% PR (Partial Response).
(§2) (1 picture or pasted object on this page, not shown here)

NRP1 = conditions: cited from earlier work
From the text: Glioblastoma (GBM) is a devastating disease with poor prognosis. Highly infiltrative and vascularized, these tumors are composed of multi-clonal cell types with various migratory and proliferative properties, and are genetically very heterogeneous. This obvious cellular heterogeneity largely accounts for the observed resistance to all available therapeutic strategies including, surgery, radiotherapy and chemotherapy. Significant recent progress in targeted therapy comprises blocking various receptor tyrosine kinases (RTK) or inhibiting angiogenesis. However, the clinica ...

NRP1/PlexA1 complexes = assay: in situ proximity ligation assay (Duo-link), NRP1/PlexA1 complexes in U373MG cells; type: cell-based, human; conditions: specificity control, MTP-Neu at 10–6 M
Experimental: as §1
Additional specificity controls were performed using a mutated version of MTP-PlexA1 (in which 3 glycines of the GxxxGxxxG motif were replaced by 3 valines or MTP-Neu, an anti-breast cancer peptide known to not interact with PlexA1) as described in Supplementary Figure S2. […] Similar results were obtained when cells were exposed to VEGF (39.4% NRP1 and 35.4% PlexA4, Figure 4B).
Supplementary Figure S2: Specificity controls were performed using a mutated version of MTP-PlexA1 […]
LVIVAVLIAYKRK). Such mutations have been previously shown to be sufficient to lose activity of NRP1 antagonist membrane domain targeting peptide (Roth et al., 2008 Mol Biol Cell). We also used MTP-Neu, a transmembrane domain targeting peptide known to […]
M, a concentration previously shown to produce maximal antagonist activity of the peptide. Additionally, we also repeated the in vitro angiogenic assay on matrigel using HUVEC cells. […]
to MTP-PlexA1. These experiments confirmed the specificity of MTP-PlexA1.
as §2

HUVEC cells = assay: pseudo-tube formation assay, HUVEC on matrigel; type: cell-based, human; conditions: specificity control
From the text: We observed PlexA1 positive blood vessels in the tissue array of GBM samples (Figure 5A). […] To address this possibility we first used a transgenic zebra-fish model tg(kdrl:eGFP) highlighting the endothelial cells. This allowed us to assess the angiogenic activities in vivo by analyzing formation of intersegmental vessels (ISVs) after morpholino-based knockdown of the target.
Figure 5 MTP-PlexA1 inhibits developmental and tumor-specific PlexA1 pro-angiogenic role (A) Microphotographs illustrating the expression of PlexA1 in vascular-like structures in human glioma tissues. (Scale bar: 40 μm). (B) Morpholino-based PlexA1 knockdown in Zebrafish tg(kdrl:eGFP) line. Representative images of control, Plexin-A1 mismatch and Pexin-A1 knockdown embryos (plxna1MO) are shown 28 hours post fertilization (28hpf). […] (E) Live-monitoring of VEGF-induced HUVEC cell migration assay using the XCelligence system (transwell assay). (F) Microphotographs illustrating the expression of PlexA1 in blood vessels of the chick chorioallontoic membrane (upper left picture). Microphotographs (middle and lower left pictures) and camera lucida drawing (middle and lower right pictures) showing representative fields of observation after 24 h incubation with VEGF (100 ng/ml, +vehicle) or VEGF + MTP-PlexA1 (10^−7 M). The number of VEGF-induced new blood vessels is shown in the graph. […]

p-Akt/Akt = assay: western blot of Akt phosphorylation in U373MG cells; type: cell-based, human; conditions: p-Akt/Akt ratio, western blot, Sema3A 100 ng/ml
Experimental: (C) Rac-1 activation assay in resting condition and after Sema3A-induced Rac-1 activation in U373 MG cells. (D) Western blot analysis of phosphorylated Akt, total Akt and tubulin in U373MG cells treated with the vehicle (LDS 72 μM), Sema3A (100 ng/ml) or Sema3A + MTP-PlexA1 (10^−7 M). The lower panel is showing the quantification of the p-Akt/Akt ratio in the different conditions. (E) MTP-PlexA1 decreases VEGFR-2 phosphorylation induced by VEGF (100 ng/ml) in HUVEC cells. […]
in 20 mM sodium acetate (pH 4.5) at a flow rate of 5 μl/ min 10–7 M of MTP-PlexA1 or Vehicle (LDS, 72 µM) during until desired surface densities, measured in response 1 h. Stimulation was done with 100ng/ml Semaphorin 3A units, were reached. […] First antibodies (Rabbit anti-phospho-the elution buffer containing detergent removed non- akt, Rabbit anti-akt, Cell Signaling #4060 and #9272 biotinylated peptides rendering the chip ready for analysis respectively) and mouse anti-tubulin α (Cell Signaling with monomeric biot-MTP-PlexA1. Blank surfaces were #2144) were incubated overnight at 4°C (+ anti-NRP1, used for background corrections. Injections of 30 µl anti-PlexA4 Abcam). […] Images of the immuno-blots cells per well in a 6-well plate and serum starved overnight. were acquired and analyzed thanks to the GENE GNOME Before protein extraction, the cells were treated either with apparatus (Syngene Bio Imaging, UK).

| Molecule | interaction with PlexA1 TMD (PlexA1 TMD) | also measured |
| --- | --- | --- |
| IEITLIIFGVMAGVIGTILLISYGIRRK [GPA, TMD of GpA in BACTH assay] | no significant interaction | – |
| TLPAIVGIGGGGGLLLLVIVAVLIAYKRK [PlexA1, TMD of Plexin A1 in BACTH assay] | homo-dimerization capacity | – |
| TLPAMMGLAAGGGLLLLAITAVLVAYKRK [Plexin-A3, TMD of Plexin A3 in BACTH assay] | weaker interactions | – |
| TLPAIVSIAAGGSLLLIIVIIVLIAYKRK [Plexin-A2, TMD of Plexin A2 in BACTH assay] | weaker interactions | – |
| ISIISAVVGILLVVVLGVVFGILIKRR [HER2, TMD of HER2 in BACTH assay] | no significant interaction | – |
| VEGF [reference compound] | – | tumor cell migration induced by VEGF (U373MG cells): induced tumor cell |
| NLELITLCTCVAATLFWLLLTLFIRKK [VEGFR-1, TMD of VEGFR-1 in BACTH assay] | no significant interaction | – |
| IIPIVAGVVAGIVLIGLALLLIWKLLKR [Integrin Beta-1, TMD of Integrin β-1 in BACTH assay] | no significant interaction | – |
| ILITIIAMSALGVLLGAVCGVVLYRKR [MTP-NRP1, synthetic peptide mimicking the TMD of NRP1] | – | NRP1 dimerization antagonism (NRP1): potent inhibitor by antagonizing dimerization; brain tumor growth (NRP1): reducing brain tumor growth; tumor cell migration and angiogenesis (NRP1; in vitro and in vivo): impaired tumor cell migration and angiogenesis |
| TLPAIVVIGGVGVLLLLVIVAVLIAYKRK [MTP-PlexA1mut] | – | disruption of NRP1/PlexA1 dimers (NRP1/PlexA1 complexes): not by mutated MTP-PlexA1mut peptide; effect on number of tube-like structures (HUVEC on matrigel) (HUVEC cells): not able to decrease tube like structure; also recorded: not able to reduce the number of tube-like structures |
| NFTGLIAGVVSISTALLLLLGFFLWLKKR [cMET, TMD of c-Met in BACTH assay] | no significant interaction | – |
| SLPAIVSIAVAGGLLIIFIVAVLIAYKRK [Plexin-A4, TMD of Plexin A4 in BACTH assay] | positive interactions | – |
| SMEIVILVGTGVIAVFFWVLLLLIFCNRRK [VEGFR-3, TMD of VEGFR-3 in BACTH assay] | no significant interaction | – |
| ILITIIAMSALGVLLGAVCGVVLYRKR [NRP1, TMD of Neuropilin-1 in BACTH assay] | significant interaction | – |
| IIILVGTAVIAMFFWLLLVIILRTVKRK [VEGFR-2, TMD of VEGFR-2 in BACTH assay] | no significant interaction | – |
| AAQVGLGVGTSLLALGVIIIVLMYRRK [Plexin-B1, TMD of Plexin B1 in BACTH assay] | no significant interaction | – |
| B1 | – | change of Akt phosphorylation (p-Akt/Akt): −33% |
